# From patent publication US5081225A, “Gram-positive and gram-negative antibacterial compounds from the microorganism, Janthinobacterium lividum” (E. R. Squibb & Sons, Inc., priority 1989, dated 1992)
# Legend:
# Enterobacter aerogenes = experiment: agar dilution MIC, aerobic organisms; settings: Table 1; Enterobacter aerogenes SC 10078
# Nocardia asteroides = experiment: agar dilution MIC, aerobic organisms; settings: Table 2; Nocardia asteroides SC 2626
# Enterobacter cloacae = experiment: agar dilution MIC, aerobic organisms; settings: Table 1; Enterobacter cloacae SC 8236
# [1] = tested on: Staphylococcus saprophyticus; experiment: agar dilution MIC, aerobic organisms; settings: Table 2; Staphylococcus saprophyticus SC 12875
# Citrobacter freundii = experiment: agar dilution MIC, aerobic organisms; settings: Table 1; Citrobacter freundii SC 9518
# Proteus mirabilis = experiment: agar dilution MIC, aerobic organisms; settings: Table 1; Proteus mirabilis SC 3855
# [2] = agar dilution MIC, aerobic organisms; settings: Table 2; Nocardia monocytogenes SC 8523
# Micrococcus luteus = experiment: agar dilution MIC, aerobic organisms; settings: Table 1; Micrococcus luteus SC 2495
# Salmonella typhosa = experiment: agar dilution MIC, aerobic organisms; settings: Table 1; Salmonella typhosa SC 1195
# [3] = tested on: Staphylococcus epidermidis; experiment: agar dilution MIC, aerobic organisms; settings: Table 2
# Escherichia coli = experiment: agar dilution MIC, aerobic organisms; settings: Table 1
# Streptococcus agalactiae = experiment: agar dilution MIC, aerobic organisms
# Klebsiella aerogenes = experiment: agar dilution MIC, aerobic organisms; settings: Table 1; Klebsiella aerogenes SC 10440
# Pseudomonas aeruginosa = experiment: agar dilution MIC, aerobic organisms; settings: Table 1
# [4] = stability under acidic conditions (observed during isolation); assay type: physicochemical
# Procedure: The methanol extract is added to MCI GEL CHP20P™ (CHP20P) in water and the mixture is stirred for one hour. The charged resin is collected by vacuum filtration and washed with methanol, water, and acetonitrile. The charged resin is then packed in a column and the antibiotics are eluted with acetonitrile-water-formic acid. Further purification is achieved by chromatography on SEPHADEX LH-20™ in acetonitrile-water. Partial resolution of the three antibiotics, janthinocin A, B, and C, is effected by chromatography on CHP20P eluting with a gradient of acetonitrile-water-formic acid. Final separation and purification of janthinocins B and C is achieved by chromaography on CHP20P eluting with an acetonitrile-aqueous ammonium dihydrogen phosphate buffer gradient, followed by desalting on CHP20P, eluting with acetonitrile-water-formic acid, to give the pure antibiotics as off white powders. […] When janthinocin C is present, it co-elutes with janthinocin B in each of the initial chromatographies.
# Streptococcus faecalis = experiment: agar dilution MIC, aerobic organisms
# Bacillus subtilis = experiment: agar dilution MIC, aerobic organisms; settings: Table 2; Bacillus subtilis SC 3777
# Staphylococcus aureus = experiment: agar dilution MIC, aerobic organisms
# Proteus rettgeri = experiment: agar dilution MIC, aerobic organisms; settings: Table 1; Proteus rettgeri SC 8479
# Klebsiella pneumoniae = experiment: agar dilution MIC, aerobic organisms; settings: Table 1; Klebsiella pneumoniae SC 9527
# Serratia marcescens = experiment: agar dilution MIC, aerobic organisms; settings: Table 1; Serratia marcescens SC 9783
# [5] = tested on: Acinetobacter calcoaceticus; experiment: agar dilution MIC, aerobic organisms; settings: Table 1; Acinetobacter calcoaceticus SC 8333
# Proteus vulgaris = experiment: agar dilution MIC, aerobic organisms; settings: Table 1; Proteus vulgaris SC 9416
# Shigella sonnei = experiment: agar dilution MIC, aerobic organisms; assay type: cell-based; settings: Table 1; Shigella sonnei SC 8449
# Text: The composition of K-10 agar was:
# [6] = Staphylococcus epidermidis SC 9052 (Penicillin S)
# [7] = Staphylococcus epidermidis SC 9083 (Penicillin R)
# [8] = Staphylococcus epidermidis SC 9087 (Penicillin R)
# [9] = Staphylococcus epidermidis SC 9607 (Penicillin R)
# [10] = Staphylococcus epidermidis SC 10547 (Penicillin R)
# [11] = Table 1, Streptococcus agalactiae SC 9287
# [12] = Table 2, Streptococcus agalactiae SC 9285
# [13] = Table 2, Streptococcus agalactiae SC 9287
# [14] = Table 1, Streptococcus faecalis SC 9011
# [15] = Table 2, Streptococcus faecalis SC 9011
# [16] = Table 2, Streptococcus faecalis SC 9376
# [17] = Table 2, Streptococcus faecalis SC 10938
# [18] = Table 1, Staphylococcus aureus SC 1276
# [19] = Table 1, Staphylococcus aureus SC 2399
# [20] = Table 1, Staphylococcus aureus SC 2400
# [21] = Table 1, Staphylococcus aureus SC 10165
# [22] = Table 2, Staphylococcus aureus SC 2399 (Penicillin S)
# [23] = Table 2, Staphylococcus aureus SC 2400 (Penicillin R)
# [24] = Table 2, Staphylococcus aureus SC 3184 (Methicillin R)
# [25] = Table 2, Staphylococcus aureus SC 9593 (Penicillin R)
# [26] = Table 2, Staphylococcus aureus SC 9998 (Penicillin R)
# [27] = Table 2, Staphylococcus aureus SC 10014 (Methicillin R)
# [28] = Table 2, Staphylococcus aureus SC 10016 (Tetracycline R)
# [29] = Table 2, Staphylococcus aureus SC 10020 (Methicillin R)
# [30] = Table 2, Staphylococcus aureus SC 10820 (Erythromycin R)
# [31] = Table 2, Staphylococcus aureus SC 11239 (Gentamicin R)
# [32] = Table 2, Staphylococcus aureus SC 12691 (Erythromycin R)
substance,measurement,setting,value
janthinocin A,MIC,Enterobacter aerogenes,25 µg/mL
same,MIC,Nocardia asteroides,0.8 µg/mL
same,MIC,Enterobacter cloacae,25 µg/mL
same,MIC,[1],0.8 µg/mL
same,MIC,Citrobacter freundii,25 µg/mL
same,MIC,Proteus mirabilis,100 µg/mL
same,MIC,[2],0.8 µg/mL
same,MIC,Micrococcus luteus,0.2 µg/mL
same,MIC,Salmonella typhosa,12.5 µg/mL
same,MIC,[3]; [6],0.8 µg/mL
same,MIC,[3]; [7],0.8 µg/mL
same,MIC,[3]; [8],0.8 µg/mL
same,MIC,[3]; [9],0.4 µg/mL
same,MIC,[3]; [10],0.8 µg/mL
same,MIC,Escherichia coli; Escherichia coli SC 8294,25 µg/mL
same,MIC,Escherichia coli; Escherichia coli SC 10896,6.3 µg/mL
same,MIC,Escherichia coli; Escherichia coli SC 10909,6.3 µg/mL
same,MIC,Streptococcus agalactiae; [11],0.2 µg/mL
same,MIC,Streptococcus agalactiae; [12],0.4 µg/mL
same,MIC,Streptococcus agalactiae; [13],0.4 µg/mL
same,MIC,Klebsiella aerogenes,25 µg/mL
same,MIC,Pseudomonas aeruginosa; Pseudomonas aeruginosa SC 8329,100 µg/mL
same,MIC,Pseudomonas aeruginosa; Pseudomonas aeruginosa SC 9545,50 µg/mL
same,chemical stability,[4],converted to janthinocin C under acidic conditions
same,MIC,Streptococcus faecalis; [14],1.6 µg/mL
same,MIC,Streptococcus faecalis; [15],0.8 µg/mL
same,MIC,Streptococcus faecalis; [16],0.8 µg/mL
same,MIC,Streptococcus faecalis; [17],1.6 µg/mL
same,MIC,Bacillus subtilis,0.4 µg/mL
same,MIC,Staphylococcus aureus; [18],0.8 µg/mL
same,MIC,Staphylococcus aureus; [19],1.6 µg/mL
same,MIC,Staphylococcus aureus; [20],1.6 µg/mL
same,MIC,Staphylococcus aureus; [21],1.6 µg/mL
same,MIC,Staphylococcus aureus; [22],0.8 µg/mL
same,MIC,Staphylococcus aureus; [23],0.4 µg/mL
same,MIC,Staphylococcus aureus; [24],1.6 µg/mL
same,MIC,Staphylococcus aureus; [25],0.8 µg/mL
same,MIC,Staphylococcus aureus; [26],0.8 µg/mL
same,MIC,Staphylococcus aureus; [27],0.4 µg/mL
same,MIC,Staphylococcus aureus; [28],0.2 µg/mL
same,MIC,Staphylococcus aureus; [29],0.4 µg/mL
same,MIC,Staphylococcus aureus; [30],0.8 µg/mL
same,MIC,Staphylococcus aureus; [31],0.8 µg/mL
same,MIC,Staphylococcus aureus; [32],0.4 µg/mL
same,MIC,Proteus rettgeri,50 µg/mL
same,MIC,Klebsiella pneumoniae,25 µg/mL
same,MIC,Serratia marcescens,25 µg/mL
janthinocin B,MIC,Enterobacter aerogenes,50 µg/mL
same,MIC,Nocardia asteroides,3.1 µg/mL
same,MIC,Enterobacter cloacae,50 µg/mL
same,MIC,[1],0.4 µg/mL
same,MIC,[5],25 µg/mL
same,MIC,Citrobacter freundii,25 µg/mL
same,MIC,Proteus mirabilis,100 µg/mL
same,MIC,[2],1.6 µg/mL
same,MIC,Micrococcus luteus,0.2 µg/mL
same,MIC,Salmonella typhosa,12.5 µg/mL
same,MIC,[3]; [6],0.4 µg/mL
same,MIC,[3]; [7],0.4 µg/mL
same,MIC,[3]; [8],0.4 µg/mL
same,MIC,[3]; [9],0.4 µg/mL
same,MIC,[3]; [10],0.4 µg/mL
same,MIC,Escherichia coli; Escherichia coli SC 8294,25 µg/mL
same,MIC,Escherichia coli; Escherichia coli SC 10896,6.3 µg/mL
same,MIC,Escherichia coli; Escherichia coli SC 10909,6.3 µg/mL
same,MIC,Streptococcus agalactiae; [11],< 0.05 µg/mL
same,MIC,Streptococcus agalactiae; [12],< 0.05 µg/mL
same,MIC,Streptococcus agalactiae; [13],< 0.05 µg/mL
same,MIC,Klebsiella aerogenes,50 µg/mL
same,MIC,Pseudomonas aeruginosa; Pseudomonas aeruginosa SC 8329,100 µg/mL
same,MIC,Pseudomonas aeruginosa; Pseudomonas aeruginosa SC 9545,50 µg/mL
same,MIC,Streptococcus faecalis; [14],1.6 µg/mL
same,MIC,Streptococcus faecalis; [15],1.6 µg/mL
same,MIC,Streptococcus faecalis; [16],1.6 µg/mL
same,MIC,Streptococcus faecalis; [17],0.8 µg/mL
same,MIC,Bacillus subtilis,0.1 µg/mL
same,MIC,Staphylococcus aureus; [18],0.4 µg/mL
same,MIC,Staphylococcus aureus; [19],1.6 µg/mL
same,MIC,Staphylococcus aureus; [20],1.6 µg/mL
same,MIC,Staphylococcus aureus; [21],0.8 µg/mL
same,MIC,Staphylococcus aureus; [22],0.4 µg/mL
same,MIC,Staphylococcus aureus; [23],0.8 µg/mL
same,MIC,Staphylococcus aureus; [24],0.4 µg/mL
same,MIC,Staphylococcus aureus; [25],0.4 µg/mL
same,MIC,Staphylococcus aureus; [26],0.1 µg/mL
same,MIC,Staphylococcus aureus; [27],0.4 µg/mL
same,MIC,Staphylococcus aureus; [28],0.4 µg/mL
same,MIC,Staphylococcus aureus; [29],0.4 µg/mL
same,MIC,Staphylococcus aureus; [30],0.2 µg/mL
same,MIC,Staphylococcus aureus; [31],0.2 µg/mL
same,MIC,Staphylococcus aureus; [32],0.4 µg/mL
same,MIC,Proteus rettgeri,100 µg/mL
same,MIC,Klebsiella pneumoniae,25 µg/mL
same,MIC,Serratia marcescens,50 µg/mL
janthinocin C,MIC,Enterobacter aerogenes,> 100 µg/mL
same,MIC,Enterobacter cloacae,> 100 µg/mL
same,MIC,[5],25 µg/mL
same,MIC,Citrobacter freundii,100 µg/mL
same,MIC,Proteus vulgaris,> 100 µg/mL
same,MIC,Proteus mirabilis,> 100 µg/mL
same,MIC,Shigella sonnei,100 µg/mL
same,MIC,Micrococcus luteus,1.6 µg/mL
same,MIC,Salmonella typhosa,100 µg/mL
same,MIC,Escherichia coli; Escherichia coli SC 8294,> 100 µg/mL
same,MIC,Escherichia coli; Escherichia coli SC 10857,50 µg/mL
same,MIC,Escherichia coli; Escherichia coli SC 10896,50 µg/mL
same,MIC,Escherichia coli; Escherichia coli SC 10909,25 µg/mL
same,MIC,Streptococcus agalactiae; [11],0.8 µg/mL
same,MIC,Klebsiella aerogenes,100 µg/mL
same,MIC,Pseudomonas aeruginosa; Pseudomonas aeruginosa SC 8329,> 100 µg/mL
same,MIC,Pseudomonas aeruginosa; Pseudomonas aeruginosa SC 9545,> 100 µg/mL
same,MIC,Streptococcus faecalis; [14],12.5 µg/mL
same,MIC,Staphylococcus aureus; [18],1.6 µg/mL
same,MIC,Staphylococcus aureus; [19],3.1 µg/mL
same,MIC,Staphylococcus aureus; [20],3.1 µg/mL
same,MIC,Staphylococcus aureus; [21],1.6 µg/mL
same,MIC,Proteus rettgeri,> 100 µg/mL
same,MIC,Klebsiella pneumoniae,> 100 µg/mL
same,MIC,Serratia marcescens,> 100 µg/mL
